Article PMC7358525, “Characterization of PF-6142, a Novel, Non-Catecholamine Dopamine Receptor D1 Agonist, in Murine and Nonhuman Primate Models of Dopaminergic Activation” (Frontiers in Pharmacology, 2020)
Structures can show the parent of a compound that is named as a salt.

Tests used:
[1] = system: ketamine-induced working memory deficits; assay: Ketamine-disrupted radial arm maze (RAM); assay type: in vivo, rat; conditions: ketamine 10 mg/kg s.c.
Excerpt: Two cohorts of adult male Long-Evans rats (N=30 each) were trained in a spatial working memory task on an eight-arm RAM, (Pathfinder Maze System, Lafayette Instrument Co., Lafayette, IN), using a procedure adapted from [Ward et al. (1990)] and described in detail in [Strick et al. (2011)]. Briefly, rats were food-restricted to provide motivation to perform the RAM task. The task requires that the animals enter each arm to retrieve a reinforcement food pellets, using spatial cues in the room to remember which arms of the maze they have previously entered. Rats were individually placed on the maze and allowed to navigate until all eight arms were entered and the pellets were consumed or until 30 choices were made, or until 5 min had elapsed. Entry into an arm previously entered was counted as an error. […] Training continued until all animals had reached the training criterion, defined as two or fewer errors on two consecutive days. […] Performance on the maze was evaluated 30 min later by an observer that was blinded to treatments.
The R 3.0.1 statistical software was used to compare the error rate data. The effects of treatment and the interaction on the error rate were assessed using a one-way mixed model ANOVA using generalized least squares method from lme4 library. […]

[2] = system: ketamine-induced working memory deficits; assay: Spatial delayed response (SDR) task in the nonhuman primate; assay type: in vivo, rhesus monkeys; conditions: ketamine 0.7-1.7 mg/kg i.m.; baseline 70.63 ± 1.75%
Excerpt: This study was designed to test the hypothesis that PF-6142 would provide significant protection versus the ketamine-induced working memory deficits in nonhuman primates.
Rhesus monkeys were trained to stability on a variable SDR task in a sound-attenuated Wisconsin General Testing Apparatus ([Roberts et al., 2010]). Briefly, subjects observe while the investigator baiting one of two to seven wells with a highly preferred food reward and then covers all the wells with identical square plaques. An opaque screen is then lowered for one of five variable delays, which are pseudorandomized across trials within a session. Thus, delays are defined as 0–4 N, where “N” is a value that is animal dependent and ranges from 1 to 10 s depending upon the difficulty level of the task at which an animal reaches the criterion of stable performance. At the end of the delay period, the opaque screen is raised, and the animal must select the well that had been baited to obtain a reward. Each test session consists of 20 trials wherein both the baited well and delay length are pseudorandomized across trials. Before study initiation, all subjects were required to reach stability over a period of 10 consecutive test sessions, where stability was defined as an average of 65–75% correct. Stability was attained by varying the number of wells and the delay value for each animal. Subjects were originally trained on a two-well board with an N value of 1. […] Once stability was attained for a given number of wells and N value, that combination was kept constant throughout the course of the study ([Roberts et al., 2010]). The range of stable performance for the 10 subjects was two to five wells and an N value of 1–7 s (median, four-well testing board, N = 5 s). Data were transformed using logarithmic function [log(x+5)] to improve normality and analyzed using ANOVA.
Subjects received pretreatment with vehicle (sterile saline solution) or PF-6142 (0.0015, 0.015, 0.15 mg/kg, s.c.) 4 h before cognitive testing. They then received an intramuscular injection of either vehicle (sterile saline) or ketamine (0.7–1.7 mg/kg; Fort Dodge Co.) 0.25 h before cognitive testing. […] Thus, for the present study, one monkey received 0.7 mg/kg, seven monkeys received 1.0 mg/kg, and two monkeys received 1.7 mg/kg of ketamine. The vehicle/PF-6142 and vehicle/ketamine treatments were assigned using a randomized Latin square design with a total of eight conditions. Except for the vehicle/vehicle condition, there was a minimum 2-week washout period between all acute challenges during which time animals were required to “restabilize” to baseline performance levels, which was defined as at least three consecutive testing sessions wherein cognitive performance ranged between 65% and 75% correct.

Q: How did the “error rate (errors/choices) in RAM” value [1] turn out when CNC1(c2ccccc2Cl)CCCCC1=O (centres unmarked) [ketamine, ketamine hydrochloride, reference compound] was run?
A: robust increase in error rate

Q: And the “percent correct on the SDR task” value [2]?
A: 28.75 ± 2.45%
